Assay results as given in EP0253314B1, “Peptidase and process for producing the same” (SUNTORY LIMITED, priority 1986, dated 1988).
Non-standard residues stand in square brackets, D forms with d. Residues, ends and D or L forms follow the SMILES beside them. *: point of attachment. Sta = CC(C)C[C@H](N)[C@@H](O)CC(=O)O; Isovaleryl = CC(C)CC(=O)*

Key:
[1] = tested on: peptidase of the present invention; format: biochemical, Saccharomyces cerevisiae; design: key to Inhibition: - indicates that the reaction was not inhibited; details: for Inhibition: pH 4
[2] = tested on: enzyme of the present invention; test: Substrate specificity of enzyme (percentage of cleaved substrate by HPLC); format: biochemical, Saccharomyces cerevisiae; details: 24 hours at 30°C in 0.05 M acetate buffer (pH 4.0); DEAE-Sephacel fraction eluted with 0.2 M NaCl
α-MF = α-MF produced at a level of several µg/ml; reacted for 24 hours; prior-art culture activity; cited from earlier work

Row | Compound | Response to inhibitor (inhibition of the enzyme, in words) [1] | Inhibition [1] | % Cleavage [2] | α-MF cleaved (α-MF)
1 | O=C(O)CN(CCN(CC(=O)O)CC(=O)O)CC(=O)O [EDTA] | not inhibited | - |  | 
2 | CC(=O)N[C@@H](CC(C)C)C(=O)N[C@@H](CC(C)C)C(=O)N[C@H](C=O)CCCNC(=N)N [Leupeptin, leupeptin] | inhibited neither | - |  | 
3 | O=C(O)c1cc[c]([Hg][Cl])cc1 [PCMB, p-chloro-mercuribenzoic acid] | inhibited neither | - |  | 
4 | O=S(=O)(F)Cc1ccccc1 [PMSF, phenylmethylsulfonyl fluoride] | inhibited neither | - |  | 
5 | CC(C)CC(=O)N[C@H](C(=O)N[C@H](C(=O)N[C@@H](CC(C)C)[C@@H](O)CC(=O)N[C@@H](C)C(=O)N[C@@H](CC(C)C)[C@@H](O)CC(=O)O)C(C)C)C(C)C [Pepstatin, pepstatin] (Isovaleryl-VV[Sta]A[Sta]-OH) | not inhibited | - |  | 
6 | Cc1ccc(S(=O)(=O)N[C@@H](CCCCN)C(=O)CCl)cc1 [TLCK, tosyl - L - lysine chloromethyl ketone] | inhibited neither | - |  | 
7 | O=C(O)CI [monoiodoacetic acid] | inhibited neither | -* |  | 
8 | C[C@@H](O)[C@H](N)C(=O)N[C@@H](CCCCN)C(=O)N1CCC[C@H]1C(=O)N[C@@H](CCCNC(=N)N)C(=O)O [tuftsin, Thr - Lys - Pro - Arg] (H-TKPR-OH) |  |  | 0% | 
9 | Cys - Tyr - Ile - Gln - Asn - Cys - Pro - Leu - Gly - NH2 [oxytocin] |  |  | 0% | 
10 | Ser - Glu - Glu - Pro - Pro - Ile - Ser - Leu - Asp - Leu - Thr - Phe - His - Leu - Leu - Arg - Glu - Val - Leu - Glu - Met - Ala - Arg - Ala - Glu - Gln - Leu - Ala - Gln - Gln - Ala - His - Ser - Asn - Arg - Lys - Leu - Met - Glu - Ile - Ile - NH2 [CRF] |  |  | 0% | 
11 | Ser - Leu - Arg - Arg - Ser - Ser - Cys - Phe - Gly - Gly - Arg - Met - Asp - Arg - Ile - Gly - Ala - Gln - Ser - Gly - Leu - Gly - Cys - Asn - Ser - Phe - Arg - Tyr [α-hamp] |  |  | 0% | 
12 | Trp - Gly - Gly - Phe - Leu - Arg - Arg - Ile - Arg - Pro - Lys - Leu - Lys - Trp - Asp - Asn - Gln [dynorphin] |  |  | not less than 90% | 
13 | Trp - His - Trp - Leu - Gln - Leu - Lys - Pro - Gly - Gln - Pro - Met - Tyr [α-MF] |  |  | not less than 90% | about 50%
14 | Tyr - Gly - Gly - Phe - Met - Thr - Ser - Glu - Lys - Ser - Gln - Thr - Pro - Leu - Val - Thr - Leu [β-endorphin] |  |  | 0% | 
15 | pGlu - Leu - Tyr - Glu - Asn - Lys - Pro - Arg - Arg - Pro - Tyr - Ile - Leu [neurotensin] |  |  | 0% | 
